In experiment [1] the test system is P. aeruginosa PAO1 isogenic mutant deficient in MexA mediated efflux. The experiment can be described thus: broth microdilution minimum inhibition concentration assay. In kind it is cell-based. Conditions: Pseudomonas aeruginosa, PAO1, read-out: P. aeruginosa KO MIC. Here is the method: (§1) Exemplary compounds from the above Examples were tested to determine their minimum inhibitory concentration (MIC) for exemplary strains of Eschericia and Pseudomonas bacteria using broth microdilution methods. Assay procedures and results are described below.
(§2) Broth microdilution assays were conducted according to Clinical and Laboratory Standards Institute guidelines (CLSI, M07-A11: Clinical and Laboratory Standards Institute. Methods for Dilution Antimicrobial Susceptibility Tests for Bacteria that Grow Aerobically; Approved Standard—11th Edition. Wayne, PA: CLSI, 2018.). Briefly, a 0.5 McFarland standard suspension was made from bacterial isolates on non-selective, solid media. The inocula were adjusted to give a bacterial concentration of 1×10^6 CFU/mL. Serial doubling-dilutions of each compound were prepared in cation-adjusted Mueller-Hinton broth (Sigma-Aldrich) in 96-well microdilution plates. A 50 μL aliquot of the inoculum was added to each microdilution plate and, within 15 minutes, incubated at 37° C. in air for 16-20 h. […] The test was controlled by the determination of piperacillin MIC against both E. coli ATCC 25922 and P. aeruginosa ATCC 27853 and ensuring accordance with the ranges published in CLSI supplementary document M100 (CLSI, M100Ed29: Clinical and Laboratory Standards Institute. Performance Standards for Antimicrobial Susceptibility Testing, 29th Edition. Wayne, PA: CLSI, 2018.).
(§3) Multiple enterobacteriaceae strains were tested, including E. coli ATCC 25922 and K. pneumoniae ATCC 43816. WT E. coli BW25113 was tested with an isogenic mutant deficient in acrA mediated efflux by clean deletion. WT P. aeruginosa PAO1 was tested with an isogenic mutant deficient in MexA mediated efflux by clean deletion.
(§4) Experimental results are provided in Table 4, which provides MIC values for wild-type E. coli BW25113 (“E. coli WT MIC”), an isogenic mutant deficient in acrA mediated efflux by clean deletion (“E. coli KO MIC”), wild-type P. aeruginosa PAO1 (“P. aeruginosa WT MIC”), and an isogenic mutant deficient in MexA mediated efflux by clean deletion (“[…]”).
(Dilution methods test growth across graded concentrations, often in twofold steps.)

Experiment [2] concerns wild-type P. aeruginosa PAO1. Described as above. Conditions: Pseudomonas aeruginosa. In kind it is cell-based. Here is the method: as §1, §2, §3, §4
Experiment [3] deals with E. coli BW25113 isogenic mutant deficient in acrA mediated efflux. Described as above. Conditions: Escherichia coli, BW25113, read-out: E. coli KO MIC. It counts as cell-based. Here is the method: as §1, §2, §3, §4
The test system of experiment [4] is wild-type E. coli BW25113. The experiment is described as above. Conditions: Escherichia coli; wild-type E. coli BW25113, 37° C. 16-20 h; read-out: E. coli WT MIC. In kind it is cell-based. As for the experimental part:
as §1, §2, §3, §4

The next experiment concerns the target P. aeruginosa LpxC (Pseudomonas aeruginosa (strain ATCC 15692 / DSM 22644 / CIP 104116 / JCM 14847 / LMG 12228 / 1C / PRS 101 / PAO1), UniProt P47205). In words: biochemical. In kind it is biochemical. Conditions: 5 nM P. aeruginosa LpxC, 2.5 μM substrate, 1 hour at room temperature. As for the experimental part:
(§5) Exemplary compounds from the above Examples were tested for ability to inhibit LpxC activity using an in vitro substrate deacetylation assay with ADDA™ analysis. Assay procedures and results are described below.
(§6) For ADDA™ analysis, an aliquot of assay sample was withdrawn from each well of the 384-well plate and applied to a Hypercarb cartridge (Optimize Technologies, USA) under conditions designed to retain analytes of interest. Analytes were eluted using 1:1:2 acetone:acetonitrile:water containing 5 mM ammonium acetate then analysed by triple-quadrupole mass spectrometry. Mass spectrometry was carried out using electrospray ionization in negative ion mode.
For IC50 determinations, peak areas of the substrate and product were compared to compute the proportion of substrate reacted by the LpxC enzyme at each compound concentration.

The next experiment addresses E. coli LpxC (Escherichia coli (strain K12), UniProt P0A725). In words: in vitro substrate deacetylation assay for inhibition of LpxC (ADDA analysis). In kind it is biochemical. Conditions: 5 nM E. coli LpxC, 2.5 μM substrate, 1 hour at room temperature. Here is the method:
as §5
Dilutions of test compound were pre-incubated with 5 nM P. aeruginosa or E. coli LpxC for 10 minutes at room temperature in 50 mM NaH2PO4, 500 mM sucrose, 0.2 mg/mL BSA, pH 7.2 and <1% DMSO. Reactions were initiated by the addition of 2× substrate (UDP-3-O—(R-3-hydroxydecanoyl)-N-acetylglucosamine, Carbosynth Ltd, UK, for P. aeruginosa LpxC and UDP-3-O—(R-3-hydroxymyristoyl)-N-acetylglucosamine, BOC Sciences, USA, for E. coli LpxC), in 50 mM NaH2PO4, 0.5 mg/mL BSA, pH 7.2, to a final concentration of 2.5 μM. Reactions proceeded for 1 hour at room temperature prior to quenching with and equal volume of 2% acetic acid.
as §6, with “mode. Daughter ion peaks representing detected substrate (P. aeruginosa: parent Q1 mass=775.8 amu, daughter Q3 mass=384.7 amu E. coli: parent Q1 mass=833.0 amu, daughter Q3 mass=385.0 amu, collision energy=analyte specific, dwell time=50 ms) were identified using a multiple-reaction monitoring protocol.” for “mode.”
Total activity (0% inhibition) was obtained from reactions containing no compound, and 100% inhibition is defined as reactions in the presence of 1 μM CHIR-090 (N-[(1S,2R)-2-hydroxy-1-[(hydroxyamino)carbonyl]propyl]-4-[2-[4-(4-morpholinylmethyl)phenyl]ethynyl]-benzamide). For IC50 determinations, peak areas of the substrate and product were compared to compute the proportion of substrate reacted by the LpxC enzyme at each compound concentration. The fractional activity was converted to percentage inhibition and plotted against compound concentration in ActivityBase™ and fit using a four-parameter logistic using non-linear regression to yield the IC50 value.

The mark [5] stands for this setting: wild-type P. aeruginosa PAO1, 37° C. 16-20 h, read-out: P. aeruginosa WT MIC.
The mark [6] stands for this setting: PAO1, read-out: P. aeruginosa WT MIC.

≈ marks a conversion by molar mass, not a printed value. Read-outs that look alike come from different tables or passages of the source. A value given as a limit tells only on which side of the number the result lay.

Sequence of E. coli LpxC (P0A725 whole entry): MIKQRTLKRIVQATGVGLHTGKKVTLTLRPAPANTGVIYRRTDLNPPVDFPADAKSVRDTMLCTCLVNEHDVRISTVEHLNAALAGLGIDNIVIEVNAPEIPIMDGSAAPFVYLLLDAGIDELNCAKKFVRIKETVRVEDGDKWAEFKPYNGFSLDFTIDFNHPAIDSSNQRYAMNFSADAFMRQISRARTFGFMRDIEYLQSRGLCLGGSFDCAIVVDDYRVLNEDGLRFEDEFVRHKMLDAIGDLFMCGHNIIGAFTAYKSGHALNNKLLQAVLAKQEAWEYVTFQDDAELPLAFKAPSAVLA

Take `O=C(N[C@@H]1C[C@H](C(=O)NCc2ccc(C#Cc3ccc(CN4CCOCC4)cc3)cc2)N(C(=O)C2CC2)C1)[C@@H]1C[C@H](F)CN1` [Example 9AJ]: the MIC (usually the lowest concentration that inhibits growth of the organism) in experiment [1] is < 20 µM; in experiment [2] (setting [5]), > 100 µM; in experiment [3] it was < 20 µM; in experiment [4], 20 to 100 µM (≈ 12 to 60.2 µg/mL). Moreover, the IC50 (commonly the concentration that inhibits the measured activity by half) at P. aeruginosa LpxC is < 50 nM; at E. coli LpxC, < 500 nM.
As for `CC(C)C(=O)N1C[C@H](NC(=O)[C@@H]2C[C@H](F)CN2)C[C@@H]1C(=O)NCc1ccc(C#CC#CC2CC2)cc1` [Example 9B], the minimal inhibitory concentration (MIC) in experiment [1] is < 20 µM; in experiment [2] (setting [6]) it was > 100 µM; in experiment [3], 20 to 100 µM (≈ 9.85 to 49.3 µg/mL); in experiment [4] it was > 100 µM. In addition, the values for the IC50 against P. aeruginosa LpxC and against E. coli LpxC were < 50 nM and 500 to 2500 nM, respectively.
Turning to `CC(C)C(=O)N1C[C@H](NC(=O)[C@@H]2CCCN2)C[C@@H]1C(=O)NCc1ccc(C#Cc2ccccc2)cc1` [Example 9J], the MIC in experiment [1] is > 100 µM; in experiment [2] (setting [6]) it was > 100 µM; in experiment [3], 20 to 100 µM (≈ 9.73 to 48.7 µg/mL); in experiment [4], > 100 µM. Further, the IC50 is 100 to 1000 nM at P. aeruginosa LpxC and 2500 to 10000 nM against E. coli LpxC.
Consider `C[C@H](CN)C(=O)N1C[C@H](NC(=O)[C@@H]2C[C@H](F)CN2)C[C@@H]1C(=O)NCc1ccc(C#CC#CC2CC2)cc1` [Example 9N], for which the MIC in experiment [1], in experiment [2] (setting [6]), in experiment [3] and in experiment [4] was > 100 µM each time. Moreover, the IC50 on P. aeruginosa LpxC fell in the range of 50 to 100 nM; against E. coli LpxC it was 500 to 2500 nM.
Consider `NCCC(=O)N1C[C@H](NC(=O)[C@@H]2C[C@H](F)CN2)C[C@@H]1C(=O)NCc1ccc(C#CC#CC2CC2)cc1` [Example 9M], for which the MIC in experiment [1], in experiment [2] (setting [6]), in experiment [3] and in experiment [4] was > 100 µM throughout. Besides, the IC50 against P. aeruginosa LpxC fell in the range of 50 to 100 nM; against E. coli LpxC, 2500 to 10000 nM.
With `CC(C)C(=O)N1C[C@H](NC(=O)[C@@H]2C[C@H](F)CN2)C[C@@H]1CNC(=O)c1ccc(C#Cc2ccc(CN3CCOCC3)cc2)cc1` [Example 5, (2S,4S)-4-Fluoro-N-((3R,5R)-1-isobutyryl-5-((4-((4-(morpholinomethyl)phenyl)ethynyl)benzamido)methyl)pyrrolidin-3-yl)pyrrolidine-2-carboxamide], the MIC in experiment [1] is < 20 µM; in experiment [2] (setting [5]), > 100 µM; in experiment [3] it was < 20 µM; in experiment [4] it was < 20 µM. Besides, the values for the IC50 against P. aeruginosa LpxC and on E. coli LpxC were < 50 nM and < 500 nM, respectively.
In the case of `O=C(NC[C@H]1C[C@@H](NC(=O)[C@@H]2C[C@H](F)CN2)CN1C(=O)C1CC1)c1ccc(C#Cc2ccc(CN3CCOCC3)cc2)cc1Cl` [Example 6, (2S,4S)—N-((3R,5R)-5-((2-Chloro-4-((4-(morpholinomethyl)phenyl)ethynyl)benzamido)methyl)-1-(cyclopropanecarbonyl)pyrrolidin-3-yl)-4-fluoropyrrolidine-2-carboxamide], the minimal inhibitory concentration (MIC) was < 20 µM in experiment [1], > 100 µM in experiment [2] (setting [6]), < 20 µM in experiment [3] and < 20 µM in experiment [4]. Further, the half-inhibitory concentration (IC50) against P. aeruginosa LpxC was 50 to 100 nM; against E. coli LpxC it was < 500 nM.
Turning to `CC(C)C(=O)N1C[C@H](NC(=O)[C@@H]2C[C@H](C#N)CN2)C[C@@H]1C(=O)NCc1ccc(C#Cc2ccc(CN3CCOCC3)cc2)cc1` [Example 9AD, (2R,4R)-4-((2S,4S)-4-Cyanopyrrolidine-2-carboxamido)-1-isobutyryl-N-(4-((4-(morpholinomethyl)phenyl)ethynyl)benzyl)pyrrolidine-2-carboxamide], the MIC is < 20 µM in experiment [1], > 100 µM in experiment [2] (setting [5]), 20 to 100 µM (≈ 12.2 to 61.1 µg/mL) in experiment [3] and > 100 µM in experiment [4]. Also, the half-maximal inhibitory concentration (IC50) against P. aeruginosa LpxC is < 50 nM; against E. coli LpxC it was < 500 nM.
In the case of `CC(C)C(=O)N1C[C@H](NC(=O)[C@@H]2C[C@@H](C#N)CN2)C[C@@H]1C(=O)NCc1ccc(C#Cc2ccc(CN3CCOCC3)cc2)cc1` [Example 9AC, (2R,4R)-4-((2S,4R)-4-Cyanopyrrolidine-2-carboxamido)-1-isobutyryl-N-(4-((4-(morpholinomethyl)phenyl)ethynyl)benzyl)pyrrolidine-2-carboxamide], the MIC in experiment [1], in experiment [2] (setting [5]), in experiment [3] and in experiment [4] was > 100 µM in each case. Besides, the values for the IC50 against P. aeruginosa LpxC and against E. coli LpxC were < 50 nM and 500 to 2500 nM, respectively.
With `CC(C)C(=O)N1C[C@H](NC(=O)[C@@H]2CCCN2)C[C@@H]1C(=O)NCc1ccc(C#Cc2ccc(CN3CCOCC3)cc2)cc1` [Example 9K], the MIC in experiment [1] is 20 to 100 µM (≈ 11.7 to 58.6 µg/mL); in experiment [2] (setting [6]), > 100 µM; in experiment [3], 20 to 100 µM (≈ 11.7 to 58.6 µg/mL); in experiment [4], > 100 µM. Further, the IC50 at P. aeruginosa LpxC fell in the range of 50 to 100 nM; at E. coli LpxC, 500 to 2500 nM.
As for `CC(C)C(=O)N1C[C@H](NC(=O)[C@@H]2C[C@H](O)CN2)C[C@@H]1C(=O)NCc1ccc(C#CC#CC2CC2)cc1` [Example 9U], the MIC in experiment [1] was 20 to 100 µM (≈ 9.81 to 49.1 µg/mL); in experiment [2] (setting [6]), > 100 µM; in experiment [3], > 100 µM; in experiment [4], > 100 µM.
For `CC(C)C(=O)N1C[C@H](NC(=O)[C@@H]2C[C@@H](F)CN2)C[C@@H]1C(=O)NCc1ccc(C#Cc2ccccc2)cc1` [Example 9E], the MIC in experiment [1], in experiment [2] (setting [6]), in experiment [3] and in experiment [4] was > 100 µM each time.
Regarding `CC(C)C(=O)N1C[C@H](NC(=O)[C@@H]2C[C@@H](O)CN2)C[C@@H]1C(=O)NCc1ccc(C#CC#CC2CC2)cc1` [Example 9Z], the minimum inhibitory concentration (MIC) in experiment [1] is 20 to 100 µM (≈ 9.81 to 49.1 µg/mL); in experiment [2] (setting [6]), > 100 µM; in experiment [3], 20 to 100 µM (≈ 9.81 to 49.1 µg/mL); in experiment [4] it was > 100 µM.
Regarding `CC(C)C(=O)N1C[C@H](NC(=O)[C@@H]2C[C@H](F)CN2)C[C@@H]1C(=O)NCc1ccc(C#Cc2ccccc2)cc1` [Example 9A], the minimum inhibitory concentration (MIC) in experiment [1] was 20 to 100 µM (≈ 10.1 to 50.5 µg/mL); in experiment [2] (setting [6]), > 100 µM; in experiment [3], 20 to 100 µM (≈ 10.1 to 50.5 µg/mL); in experiment [4], > 100 µM.

The record behind these values is patent US20250171400A1, “AZA-HETEROCYCLYL CARBOXAMIDE AND RELATED COMPOUNDS AND THEIR USE IN TREATING MEDICAL CONDITIONS” (X-BIOTIX THERAPEUTICS, INC., priority 2021, published 2025).
